The values that follow are results of earlier work, collected in patent publication US12012625B2, “Method for producing bioactive composition” (Imam Abdulrahman Bin Faisal University, priority 2020, dated 2024).

Take `Cc1cc(=O)c2c(O)c3c(O)cc(=O)c4c3c3c(c(Cl)c(O)c1c23)C(C)(C)C=4O` [chlorxanthomycin]: the growth inhibition entry with B. amyloliquefaciens and in the data set on B. subtilis was “inhibited the growth” throughout.
